In patent US8283465B2, “Triazolopyridine compound, and action thereof as prolyl hydroxylase inhibitor or erythropoietin production-inducing agent” (Japan Tobacco Inc., priority 2009, dated 2012):
Where a name gives a salt, the structure may show the parent alone.

system: human EPO production, Hep3B cells; experiment: Human EPO production activity in Hep3B cells (EPO-ELISA of culture supernatant); type: cell-based; conditions: 24 hr, at 30 μM, values containing %, relative to maximum production
Method: The activity of the test compound on human EPO production was measured using Hep3B (AMC) established from human liver-derived cell line.
Hep3B cells were cultured in Eagle-MEM medium containing 10% fetal bovine serum, and the test compound was diluted with dimethyl sulfoxide (DMSO).
Hep3B cells were cultured in a 96-well plate, and a test compound was added at each concentration 24 hr later. After incubation at 37° C. for 24 hr, the culture supernatant was collected. The concentration of human EPO produced in the culture supernatant was measured using a human EPO-ELISA kit (manufactured by StemCell Technologies, 01630) according to the manufacturer's explanation, and the human EPO production activity (%) of the test compound was calculated based on the maximum value of production under the above conditions and the value without addition of the test compound. […] In these Tables, the values consisting solely of numbers show EC50 (μM) and those containing % show human EPO production activity (%) at […].

SMILES | production activity (%) at 30 μM in vitro, human EPO
CCc1c(O)c(C(=O)NCC(=O)O)c2ncnn2c1CC.Cl [Example 4, [(5,6-diethyl-7-hydroxy[1,2,4]triazolo[1,5-a]pyridine-8-carbonyl)amino]acetic acid hydrochloride] | 38%
O=C(O)CNC(=O)c1c(O)ccn2cnnc12 [Example 10, [(7-hydroxy[1,2,4]triazolo[4,3-a]pyridine-8-carbonyl)amino]acetic acid hydrochloride] | 0%
O=C(O)CNC(=O)c1c(O)ccn2ncnc12 [Example 12, [(7-hydroxy[1,2,4]triazolo[1,5-a]pyridine-8-carbonyl)amino]acetic acid hydrochloride] | 5%
CCCc1cc(O)c(C(=O)NCC(=O)O)c2ncnn12 [Example 65, [(7-hydroxy-5-propyl[1,2,4]triazolo[1,5-a]pyridine-8-carbonyl)amino] acetic acid hydrochloride] | 49%

same assay, conditions: Homo sapiens, Hep3B, 24 h, 24 hr incubation, values consisting solely of numbers, read-out: EC50 (μM) in vitro, human EPO production activity

SMILES | EC50
CCCCc1cc(O)c(C(=O)NCC(=O)O)c2ncnn12 [Example 3, [(5-butyl-7-hydroxy[1,2,4]triazolo[1,5-a]pyridine-8-carbonyl)amino]acetic acid hydrochloride] | 12.4 µM
Cc1nc2c(C(=O)NCC(=O)O)c(O)cc(CCc3ccccc3)n2n1 [Example 7, [(7-hydroxy-2-methyl-5-phenethyl[1,2,4]triazolo[1,5-a]pyridine-8-carbonyl)amino]acetic acid hydrochloride] | 18.4 µM
O=C(O)CNC(=O)c1c(O)cc(CCc2ccc(F)cc2)n2ncnc12 [Example 17, ({5-[2-(4-fluorophenyl)ethyl]-7-hydroxy[1,2,4]triazolo[1,5-a]pyridine-8-carbonyl}amino)acetic acid hydrochloride] | 8.8 µM
O=C(O)CNC(=O)c1c(O)cc(-c2ccccc2)n2ncnc12 [Example 22, [(7-hydroxy-5-phenyl[1,2,4]triazolo[1,5-a]pyridine-8-carbonyl)amino]acetic acid hydrochloride] | 13.7 µM
O=C(O)CNC(=O)c1c(O)cc(C2CCCCC2)n2ncnc12 [Example 27, [(5-cyclohexyl-7-hydroxy[1,2,4]triazolo[1,5-a]pyridine-8-carbonyl)amino]acetic acid hydrochloride] | 7.7 µM
O=C(O)CNC(=O)c1c(O)cc(-c2cccc(Cl)c2)n2ncnc12 [Example 44, {[5-(3-chlorophenyl)-7-hydroxy[1,2,4]triazolo[1,5-a]pyridine-8-carbonyl]amino}acetic acid] | 10.4 µM
CCCCCc1cn2ncnc2c(C(=O)NCC(=O)O)c1O [Example 71, [(7-hydroxy-6-pentyl[1,2,4]triazolo[1,5-a]pyridine-8-carbonyl)amino] acetic acid hydrochloride] | 15.8 µM
CCCCCc1cc(O)c(C(=O)NCC(=O)O)c2ncnn12 [Example 74, [(7-hydroxy-5-pentyl[1,2,4]triazolo[1,5-a]pyridine-8-carbonyl)amino] acetic acid hydrochloride] | 8.3 µM
O=C(O)CNC(=O)c1c(O)cc(-c2ccccc2)c2ncnn12 [Example 83, [(6-hydroxy-8-phenyl[1,2,4]triazolo[1,5-a]pyridine-5-carbonyl)amino] acetic acid hydrochloride] | 20.7 µM
O=C(O)CNC(=O)c1c(O)cc(-c2cccc(Cl)c2)c2ncnn12 [Example 84, {[8-(3-chlorophenyl)-6-hydroxy[1,2,4]triazolo[1,5-a]pyridine-5-carbonyl]amino} acetic acid] | 11 µM
O=C(O)CNC(=O)c1c(O)cc(CCc2ccccc2)c2ncnn12 [Example 87, [(6-hydroxy-8 phenethyl[1,2,4]triazolo[1,5-a]pyridine-5-carbonyl)amino] acetic acid hydrochloride] | 18.5 µM
O=C(O)CNC(=O)c1c(O)cc(C2CCCCC2)c2ncnn12 [Example 92, [(8-cyclohexyl-6-hydroxy[1,2,4]triazolo[1,5-a]pyridine-8-carbonyl]amino] acetic acid hydrochloride] | 18.5 µM
